Experimental data: patent publication US9802990B2, “Functional peptides for obesity disorders” (DANONE, S.A., priority 2013, dated 2017)
Like-named read-outs stand apart in the source and are kept apart here. Where no end group is shown, it is not given here.

Tests used:
[1] = system: soy glycinin; assay: Protease activity of LAB strains (supernatant and cells); assay type: biochemical; settings: for Protease activity cell: cells; for Protease activity Supernatant: culture supernatant, proteases above 10 KDa concentrated
Source text: For the purpose of selecting the most efficient lactic acid bacteria having protease activity against glycinin, different strains of the genera Lactobacillus and Streptococcus were subject to the following hydrolysis assay.
The substrate selected to carry out the process of hydrolysis was soy glycinin. Glycinin is the soy major protein extracted from soy flour after treatment with mercaptoethanol followed by two centrifugation steps as described in Thanh V. H. et al. (Major proteins of soybean seeds: a straightforward fractionation and their characterization. 1976. J Agric Food Chem 24: 1117-1121). Among the enzymatic sources used to degrade glycinin, ten strains were tested: 6 strains from Streptococcus genera (strains 2, 3, 4, 5, 6, 7) and 4 strains from Lactobacillus genera (strains 8, 9, 10 and 11). All these strains were grown in optimal medium (MRS for Lactobacillus strains and BHI for Streptococcus strains) during 17 h at 37° C. and the proteases with a molecular weight above 10 KDa both in supernatant and cells were concentrated to be used as enzymatic sources in glycinin hydrolysis assays. On one hand, proteases from the supernatant were obtained after centrifugation for 15 min at 4000 rpm. Then the supernatant was ultrafiltrated by 10 KDa and the top was resuspended in 2 ml with 50 mM citrate phosphate buffer pH 7. On the other hand, cells obtained from the different cultures were washed with saline solution for 15 min at 4000 rpm and resuspended in 50 mM citrate phosphate buffer pH 7 to evaluate the protease activity in cells and supernatant (Table 1).

[2] = system: C. elegans wild type strain N2; assay: C. elegans body fat reduction, Nile Red staining; assay type: in vivo, Caenorhabditis elegans; settings: for % Fluorescence Reduction C. elegans: synthesized peptides at 1 μg/mL of final concentration; for % Fluorescence Reduction: nematodes fed NG with peptides alone or in Savia soy fermented product, alone or mixed, 1 μg/mL final concentration, Nile Red
Procedure: The ability to reduce body fat content in the nematode C. elegans was analyzed in a group of 5 peptide extracts previously obtained from glycinin (see Table 4). These samples were selected by their high effect on PL and PLA2 in vitro inhibition. Specifically, 5 peptide extracts were selected from the PLA2 inhibition assay (M20G, M5G, M31G, M27G and M29G). Body fat content was analyzed in the C. elegans wild type strain N2 by Red Nile dying of living nematodes. Experiments were carried out with age-synchronized populations, starting from egg-stage to young adult stage (3-day adults). During the experiments, worms were cultured in the NGM agar plates as control condition, NGM with the corresponding peptide extracts (100 μL/plate) and NGM with 6 μg/mL of Orlistat as positive control. Nile Red was added on top of the NG plates already seeded with Escherichia coli OP50 strain to a final concentration of 0.05 μg/ml. After incubation at 20° C., young adult worms (60 worms per condition) were taken to measure the in vivo fluorescence in a VersaFluor™ Fluorometer System. Fluorescence obtained in treated worms was calculated from fluorescence of worms fed in control conditions (reference sample). Experiments were carried out by duplicate.
From these purified fractions, a total of 11 peptides were selected to be synthesized and evaluated in vivo in the obesity model of C. elegans (Table 9). All peptides were evaluated at 1 μg/mL of final concentration.
We selected 5 peptides obtained from hydrolysis of glycinin with strain 6 (P8a, P6a, P14c, P16f, P14b) The peptides from glycinin were added to a soy fermented product (Savia® from Danone) both alone or mixed at final concentration of 1 μg/mL. Nematodes were fed with these products and then total lipids were quantified by Nile Red staining.

[3] = In vitro enzymatic digestion model of the digestive tract (pepsin, pancreatin, bile), HPLC; assay type: in vitro ADME; settings: for metabolised at 0.5 h / metabolised at 2 h / metabolised at 0.25 h / metabolised at 1 h / metabolised at 5 min: read-out: Degradation (%); for degradation in the in vitro digestion model (in words): HPLC, completely degraded = at the beginning of the intestinal phase, resistant ones finally degraded at the end; for metabolised at 0.25 h: Intestinal phase 15 min.; for metabolised at 1 h: Intestinal phase 60 min.
Source text: An in vitro enzymatic digestion model of an in vivo digestive tract was developed for mimicking the physiological conditions to check and certify that each selected peptide was differently degraded throughout the gastro-intestinal tract by the digestive process. Pepsin, pancreatin and bile concentrations were optimized using a published experimental design (Granado-Lorencio et al (2007). J. Agri. Food. Chem., 55, 6387-6394).

[4] = target: T1, PL (pancreatic lipase) (Sus scrofa, UniProt P00591); assay: PL inhibition assay with 4-methyl umbelliferyl oleate (4MUO), fluorescence; assay type: biochemical; settings: synthesized peptides
T1 sequence (P00591 1-450): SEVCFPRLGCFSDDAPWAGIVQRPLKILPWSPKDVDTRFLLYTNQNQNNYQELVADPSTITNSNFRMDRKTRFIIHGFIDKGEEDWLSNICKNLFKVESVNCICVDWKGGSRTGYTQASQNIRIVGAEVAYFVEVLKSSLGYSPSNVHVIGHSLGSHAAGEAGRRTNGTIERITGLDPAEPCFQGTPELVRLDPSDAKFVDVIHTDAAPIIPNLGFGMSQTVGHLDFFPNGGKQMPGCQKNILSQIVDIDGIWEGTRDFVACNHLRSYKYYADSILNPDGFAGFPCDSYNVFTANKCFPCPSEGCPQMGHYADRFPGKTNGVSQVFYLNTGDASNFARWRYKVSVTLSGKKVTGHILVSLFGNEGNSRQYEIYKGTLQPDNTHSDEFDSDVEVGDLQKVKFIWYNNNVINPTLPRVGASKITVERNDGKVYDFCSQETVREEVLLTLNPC
Procedure: Inhibition of PL was determined using 4-methyl umbelliferyl oleate (4MUO) as substrate as described by Sugiyama et al. (Oligomeric procyanidins in apple polyphenol are main active components for inhibition of pancreatic lipase and triglyceride absorption. J Agric Food Chem (2007); 55: 4604-4609) with some modifications. Aliquots of 25 μl of each peptide extract were incubated with 25 μl of PL solution (1 mg/ml) and preincubated for 10 minutes at 26° C. with stirring of 500 rpm. Reaction was initiated by adding 50 μl of 4MUO (0.1 mM) dissolved in Dulbecco's buffer. After incubation at 26° C. for 20 minutes with constant stirring (500 rpm) the reaction was stopped by adding 100 μl of 0.1 M sodium citrate buffer (pH 4.2). The amount of 4-methyl umbelliferone released by the enzyme was determined by fluorescence. Peptide extracts were used as inhibitors in the enzymatic assay but had to be diluted 1/20 or 1/50 because of the interference between the fluorescence and the buffer containing the peptides.

[5] = target: PLA2 (pancreatic phospholipase A2) (Homo sapiens, UniProt P04054); assay: PLA2 inhibition assay by HPLC with DOPC as substrate; assay type: biochemical
Sequence of PLA2 (pancreatic phospholipase A2) (P04054 23-148, species assumed): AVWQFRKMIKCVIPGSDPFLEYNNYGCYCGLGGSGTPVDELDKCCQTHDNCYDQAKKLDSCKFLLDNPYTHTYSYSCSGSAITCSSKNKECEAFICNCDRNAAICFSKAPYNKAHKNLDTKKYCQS
Procedure: Inhibition of PLA2 enzyme was determined by High Performance Liquid Chromatography (HPLC) using 1,2-dioleoyl-sn-glycero-3-phosphocholine (DOPC) as substrate as described by Singh et al. (A rapid isocratic high-performance liquid chromatography method for determination of cholesterol and 1,2-dioleoyl-sn-glycero-3-phosphocholine. Journal of Chromatography (2005); 1073:347-353). Waters 2695 HPLC with Waters 2996 Photodiode detector Array and a C8 column Hypersil BDS (250×4.6 mm, […]) were used carrying out an eluent isocratic method formed by a mixture of ammonium phosphate buffer 50 mM pH 2.7:methanol (15:85, v/v).

## Lactobacillus paracasei paracasei CNCM I-4270 [Strain 10]
[1]
  Protease activity cell: 0.005 U.I./ml
  Protease activity Supernatant: 0.016 U.I./ml

## QDEDEDEDEDKPRPSRP (QDEDEDEDEDKPRPSRP; listed as Glycine soja) [Peptide P17c]
[2]
  % Fluorescence Reduction C. elegans: 18.13 ± 5.57%

## QGENEEEDSGAIVTVK [Peptide P16f, QGENEEEDSGAIVTVK]
[2]
  % Fluorescence Reduction: 33.9 ± 5.7%
  % Fluorescence Reduction C. elegans: 38.95 ± 8.7%
[3]; Gastric phase 30 min.
  metabolised at 0.5 h: 65.8%
[3]; Gastric phase 120 min.
  metabolised at 2 h: 95.2%
[3]
  degradation in the in vitro digestion model (in words): completely degraded
  metabolised at 0.25 h: 100%
  metabolised at 1 h: 100%
[3]; Intestinal phase 30 min.
  metabolised at 0.5 h: 100%
[3]; Intestinal phase 120 min.
  metabolised at 2 h: 100%
[3]; Oral phase 5 min.
  Degradation (%): −1.2%
[4]
  IC50: 262 µM
[5]; peptide 0.035 mg/ml
  Percentage of PLA2 inhibition: 13.6 ± 3.8%
[5]; peptide 0.35 mg/ml
  Percentage of PLA2 inhibition: 13.6 ± 0.4%
[5]; peptide 2 mg/ml
  Percentage of PLA2 inhibition: 15.9 ± 6.0%
[5]; peptide 3.5 mg/ml
  Percentage of PLA2 inhibition: 22.5 ± 3.7%

## QGENEGEDKGAIVT [Peptide P14b, QGENEGEDKGAIVT]
[2]
  % Fluorescence Reduction: 30.25 ± 4.2%
  % Fluorescence Reduction C. elegans: 35.30 ± 6.1%
[3]; Gastric phase 30 min.
  metabolised at 0.5 h: 6.7%
[3]; Gastric phase 120 min.
  metabolised at 2 h: 8.7%
[3]
  degradation in the in vitro digestion model (in words): resistant until the end of the process
  metabolised at 0.25 h: 36.7%
  metabolised at 1 h: 68.8%
[3]; Intestinal phase 30 min.
  metabolised at 0.5 h: 48.9%
[3]; Intestinal phase 120 min.
  metabolised at 2 h: 100%
[3]; Oral phase 5 min.
  metabolised at 5 min: 6%
[4]
  IC50: 346 µM
[5]; peptide 0.035 mg/ml
  Percentage of PLA2 inhibition: 5.9 ± 5.0%
[5]; peptide 0.35 mg/ml
  Percentage of PLA2 inhibition: 22.2 ± 5.6%
[5]; peptide 2 mg/ml
  Percentage of PLA2 inhibition: 23.8 ± 5.5%
[5]; peptide 3.5 mg/ml
  Percentage of PLA2 inhibition: 28.8 ± 3.1%

## SDNFEY [Peptide P6a, SDNFEY]
[2]
  % Fluorescence Reduction: 36.2 ± 4.1%
  % Fluorescence Reduction C. elegans: 40.90 ± 11.6%
[3]; Gastric phase 30 min.
  metabolised at 0.5 h: 31%
[3]; Gastric phase 120 min.
  metabolised at 2 h: 66.9%
[3]
  metabolised at 0.25 h: 100%
  metabolised at 1 h: 100%
[3]; Intestinal phase 30 min.
  metabolised at 0.5 h: 100%
[3]; Intestinal phase 120 min.
  metabolised at 2 h: 100%
[3]; Oral phase 5 min.
  metabolised at 5 min: 23.7%
[4]
  IC50: 55.6 µM
[5]; peptide 0.035 mg/ml
  Percentage of PLA2 inhibition: 10.6 ± 5.0%
[5]; peptide 0.35 mg/ml
  Percentage of PLA2 inhibition: 12.1 ± 4.0%
[5]; peptide 2 mg/ml
  Percentage of PLA2 inhibition: 24.5 ± 1.4%
[5]; peptide 3.5 mg/ml
  Percentage of PLA2 inhibition: 31.9 ± 5.5%

## Streptococcus thermophilus CNCM I-1630 [Strain 7]
[1]
  Protease activity cell: 0.001 U.I./ml
  Protease activity Supernatant: 0.003 U.I./ml

## Streptococcus thermophilus CNCM I-2776 [Strain 6]
[1]
  Protease activity cell: 0.001 U.I./ml
  Protease activity Supernatant: 0.006 U.I./ml

## Streptococcus thermophilus CNCM I-2785 [Strain 3]
[1]
  Protease activity cell: 0.001 U.I./ml
  Protease activity Supernatant: 0.009 U.I./ml

## Streptococcus thermophilus CNCM I-2965 [Strain 2]
[1]
  Protease activity cell: 0.003 U.I./ml
  Protease activity Supernatant: 0.005 U.I./ml

## Streptococcus thermophilus CNCM I-3211 [Strain 5]
[1]
  Protease activity cell: 0.001 U.I./ml
  Protease activity Supernatant: 0.003 U.I./ml

## Streptococcus thermophilus CNCM I-4269 [Strain 4]
[1]
  Protease activity cell: 0.002 U.I./ml
  Protease activity Supernatant: 0.001 U.I./ml
